Reference: the METLIN SMRT retention time set (Domingo-Almenara et al. 2019)

Test: gradient 5% acetonitrile 3 min, to 50% in 2 min, to 85% in 15 min, held 3 min, 100 µL/min
Conditions: column: Zorbax Extend-C18 2.1 x 50 mm; eluents: water / acetonitrile, 0.1% formic acid
Summary of the method: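 Each retention time is based on an adduct peak selected computationally and verified by manual inspection. Measurements used HPLC–quadrupole time-of-flight mass spectrometry in positive and negative ionization mode on mixtures of ~100 pure standards. Chromatography ran on a Zorbax Extend-C18 column (2.1 × 50 mm, 1.8 μm) at 100 μL/min with water and acetonitrile, each containing 0.1% formic acid, and dead and dwell volumes of 40 μL and 900 μL.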

RP-LC retention time [s] | Structure (SMILES)
664 | O=C(NCCOc1ccc2nnc(-c3ccccc3Cl)n2n1)c1cccs1
607 | CCOC(=O)c1ccc2nc(C)cc(NC(=O)c3cccs3)c2c1
628 | CCOC(=O)c1[nH]c(C)c(C(=O)N2CCC(CC(=O)NC3CC3)CC2)c1C
711 | COc1cc(C)nc(-n2nc(C)cc2OC)n1
804 | O=S(=O)(Nc1cccn2ncnc12)c1cccc(C(F)(F)F)c1
945 | O=c1c2oc3ccccc3c2ncn1Cc1nc(-c2ccc(F)cc2)no1
1020 | CC(C)Cn1c(=O)c(N2CCN(C(=O)C(C)C)CC2)nc2ccccc21
1040 | CCOC(=O)c1oc2ccccc2c1NC(=O)c1ccc([N+](=O)[O-])s1
632 | CC(C)(C)NC(=O)CCc1c(-c2ccccc2)nc2ccccn12
809 | Cc1cccc(N2C(=O)CN(S(C)(=O)=O)CC2(C)C(=O)NCc2ccc(F)cc2)c1C (configuration not stated)
932 | CC(C)(C)c1ccc(C(=O)Nc2ccc(S(N)(=O)=O)cc2)cc1
1310 | Cc1ccc(-c2noc(-c3nnn4c3COC(c3ccc(Cl)cc3)C4)n2)cc1 (configuration not stated)
852 | O=C(Nc1ccc(F)c(F)c1)C1CCN(C(=O)c2ncn3c2COC(c2ccc(F)cc2)C3)CC1 (configuration not stated)
889 | COc1ccc(-c2nnc(CC(=O)NCCC3=CCCCC3)o2)cc1
697 | Cn1cnnc1SCCNC(=O)CCc1cccc(Oc2ccc(F)cc2)c1
733 | CCc1nc2ccccc2n1CC(O)COc1cc(C)cc(C)c1 (configuration not stated)
577 | CCCNC(=O)N1CCCCC1c1n[nH]c(C)n1 (configuration not stated)
837 | O=C(CSCc1ccccc1)N1CCC(c2nnc(-c3ccco3)s2)CC1
610 | COCCN1C(=O)c2cccn2CC1CNC(=O)c1cnc(C)cn1 (configuration not stated)
961 | Cc1cc(C(=O)Nc2ccc(C)c(C)c2)n(-c2ccccc2)n1
1210 | CCOC(=O)c1noc2nc(C)nc(NCCc3ccc(Cl)cc3)c12
668 | O=C(c1csc(N2CCN(c3ccccc3)CC2)n1)N1CCC(N2CCCCC2)CC1
996 | COC(=O)c1cccc(C(=O)Nc2ccc(Cl)cc2F)n1

RP-LC retention time [s] | Structure (SMILES)
737 | O=C(O)c1cccc(Nc2c(-c3cccc(Cl)c3)nc3cnccn23)c1
653 | CCOC(=O)C1=C(CN2CC(C)CC(C)C2)NC(=O)NC1c1ccc(OC)cc1 (configuration not stated)
954 | CCOCCCNC(=O)N1CCCCCC1c1cccc(C)c1 (configuration not stated)
884 | CN1C(=O)c2ccccc2C(C(=O)Nc2ccc(F)cc2F)C1c1cccs1 (configuration not stated)
660 | NS(=O)(=O)c1ccc(CCNC(=O)c2cn3cc(Cl)ccc3n2)cc1
608 | CCCn1ncc(N2CCC(C(=O)NCC3CCCO3)CC2)cc1=O (configuration not stated)
870 | CC(C)Oc1ccc(-c2nc3ncccn3c2NC2CCCCC2)cc1
545 | O=C(Cc1ccccc1)NCCc1nc2ccccc2[nH]1
893 | O=C(NC1CCCCC1)c1cc2c(s1)CCN(C(=O)c1ccc(F)cc1)C2
669 | CSc1nnc(-c2nn(C)c3c2CN(C(=O)c2cccc(N(C)C)c2)CC3)n1C
800 | COC(=O)c1c(C)[nH]c(C(=O)N2CCC(CC(=O)NCc3cccc(Br)c3)CC2)c1C
623 | CCN(CCCNC(=O)C1CCN(S(=O)(=O)N2CCOCC2)CC1)c1cccc(C)c1
732 | CC1CN(Cc2nc3c(c(=O)n(C)c(=O)n3C)n2CCCc2ccccc2)CC(C)O1 (configuration not stated)
744 | Cc1ccc(-n2c(Cc3cccn3C)nnc2SCC(=O)NCC2CCCO2)cc1 (configuration not stated)
839 | CC1CCN(C(=O)c2cc(S(=O)(=O)N3CCC(C(=O)N4CCCCCC4)CC3)cn2C)CC1
852 | CN1CCc2ccccc2C1Cc1ccccc1NC(=O)c1sc2ccccc2c1Cl (configuration not stated)
688 | CCCC(NC(=O)c1cc(OC)c(OC)c(OC)c1)C(=O)Nc1nc2ccccc2[nH]1 (configuration not stated)
783 | CC[C@H](C)Nc1c(C(=O)OC)c(=O)[nH]c2c(Cl)cccc12
874 | Cc1cccc(CN2CCCn3nc(C(=O)NCc4cccs4)cc3C2=O)c1
626 | COCc1nc(C2CCN(C(=O)C3CC3)C2)no1 (configuration not stated)
1250 | Cc1ccc(-c2noc(-c3ccccc3S(=O)(=O)N3CCCCC3C)n2)cc1 (configuration not stated)
653 | COc1cccc(-c2nc(-c3ccc4c(c3)ncn4CCN3CCCC3)no2)c1
906 | N#Cc1ccsc1NC(=O)C1CCN(S(=O)(=O)c2ccc(Cl)s2)CC1

RP-LC retention time [s] | Structure (SMILES)
1330 | Cc1ccc(-c2noc(Cn3cnc4c(cnn4-c4ccc(C(C)C)cc4)c3=O)n2)cc1C
606 | CC(C)OCCCNC(=O)c1ccc2c(c1)nc1n2CCCCC1
558 | Cc1cc(OCC(O)CN2CCN(C)CC2)ccc1Cl (configuration not stated)
826 | CCCN(CCC)C(=O)C1CCCN(c2ccc(-c3ccc(C)cc3)nn2)C1 (configuration not stated)
606 | Cc1cccnc1NC(=O)C1CCN(S(=O)(=O)c2cc(C(=O)N3CCOCC3)cs2)CC1
1010 | O=C(c1cccc(Br)c1)N1CCc2nc(-c3ccc(F)cc3)ncc2C1
842 | COc1ccc(NC(=O)C2(C)Oc3cccnc3N(C)C2=O)cc1Cl (configuration not stated)
610 | CCOCCCNC(=O)C1CCN(c2nnc3c(Cl)cccn23)CC1
853 | CN1C(=O)c2cc(C(=O)NCCC3=CCCCC3)nn2CC1(C)C(=O)NCc1ccccc1 (configuration not stated)
679 | Cc1nc(C)c(C(=O)N2CCCn3cc(-c4ccccc4F)nc32)s1
784 | Cc1nnc(N2CCCC(C(=O)NC3CCCCC3)C2)c2nn(-c3ccc(Cl)cc3)c(C)c12 (configuration not stated)
1110 | COc1ccc(S(=O)(=O)N2CCCC(C(=O)Nc3ccc(Br)cc3)C2)cc1C (configuration not stated)
853 | CNC(=O)N1CCCC(c2cccc(C(=O)NCc3ccc(C(F)(F)F)cc3)c2)C1 (configuration not stated)
1150 | CS(=O)(=O)N1CCC2(CC1)CN(c1cccc(F)c1)C2c1ccccc1 (configuration not stated)
625 | O=C(Cc1cccn1-c1ccc(Cl)cc1)NCCCN1CCOCC1
1300 | Cc1cc(=O)n(Cc2ccc(OC(F)(F)F)cc2)c(Nc2ccc(F)c(F)c2)n1
757 | CSc1ccc(CNC(=O)Cc2c(C(=O)O)c(C)cn2C)cc1
717 | CCC(=O)Nc1ccc2c(c1)N(C(=O)c1cccs1)CCC2
726 | CC1CCN(C(=O)CC2Sc3ncccc3N(C)C2=O)CC1 (configuration not stated)
643 | Cc1sc2cc(C(=O)NC(C)C)[nH]c2c1CN1CCCCC1
661 | CCOc1ccc(S(=O)(=O)Nc2ccc(-c3cn4ccc(C)nc4n3)cc2)cc1
968 | CC(C)Cc1ccc(C(C)C(=O)N2CC(=O)Nc3ccccc32)cc1 (configuration not stated)
714 | O=C(Nc1cccc(Cl)c1)C1CCN(c2cc(N3CCCC3)ncn2)CC1

RP-LC retention time [s] | Structure (SMILES)
583 | O=C(CNC(=O)c1ccc(=O)[nH]c1)NCCOc1ccc(F)cc1
972 | Cc1nc(N2CCC(C(=O)Nc3cc(F)ccc3F)CC2)c2c(C)c(C)oc2n1
506 | CN1CCCC1c1nc(C2CN(C(=O)c3ccn[nH]3)C2)no1 (configuration not stated)
816 | O=c1n(Cc2ccccc2)nc2n1CCN(S(=O)(=O)Cc1ccccc1)CC2
880 | COc1ccc(S(=O)(=O)N2CCCC(C(=O)NCCCO)C2)cc1OC (configuration not stated)
646 | CCN(CC)C(=O)N1CC(n2cc(C(=O)N3CCCC3)nn2)C1
810 | CCOC(=O)N1CCN(C(=O)CSc2nccc3c(OC)cccc23)CC1
567 | CCN1CCN(CCCNC(=O)c2ccc(CS(=O)c3ccccc3Cl)o2)CC1 (configuration not stated)
621 | CCCn1cc(CCNC(=O)C2CC2)c2cccnc21
792 | CN(C)CCCN1c2ccc3ccccc3c2Sc2cccc(Cl)c21
957 | Cc1cccc(C(C)C)c1NC(=O)C1CCN(S(C)(=O)=O)c2ccccc2O1 (configuration not stated)
880 | CCCn1c(=O)sc2cc(S(=O)(=O)N3CCC(C(=O)NCc4cccs4)CC3)ccc21
912 | CC1CCCCN1Cc1nc(-c2ccc(N(C)Cc3ccccc3)nc2)no1 (configuration not stated)
626 | COCCC1CCN(C(=O)CC2CCN(C(C)=O)CC2)CC1
739 | CCc1ccc(NS(=O)(=O)c2cc3n(c2)CCCN(C)C3=O)cc1
1260 | O=C(Nc1nc(-c2ccc(-c3ccccc3)cc2)cs1)C1CCCC1
899 | CCOC(=O)c1nc(N(CC)Cc2ccccc2)c2ccccc2n1
576 | Cc1noc(C)c1CCC(=O)N1CCN(Cc2csc(-c3ccccc3)n2)CC1
622 | Cc1sc2cc(C(=O)O)[nH]c2c1C(=O)N1CCOCC1
975 | CC(=O)N1c2ccc(S(=O)(=O)N3CCCCCC3)cc2CC1C(=O)NCCCc1ccccc1 (configuration not stated)
1120 | CC1CCC2(CC1)N=C(c1ccccc1)C(=O)N2CC(=O)Nc1ccc2c(c1)OCCO2 (configuration not stated)

Structure (SMILES) | RP-LC retention time [s]
CC(C)NCC(O)c1ccc(N)c(C#N)c1 (configuration not stated) | 563
O=C(C1CCN(c2cnc(N3CCSCC3)nc2)CC1)N1CCC2(CC1)OCCO2 | 692
